Series [1] relates to Escherichia coli. In words: Antimicrobial activity against Escherichia coli KCTC 1682 after 18 hrs. Type of series: functional. To be noted: KCTC 1682, 18 h.
In another series the test system is Salmonella typhimurium. Put plainly: Antimicrobial activity against Salmonella typhimurium KCTC 1926 after 18 hrs. To be noted: Salmonella enterica, KCTC 1926, 18 h. Type of series: functional, Salmonella enterica subsp. enterica serovar Typhimurium.
The subject of series [2] is Pseudomonas aeruginosa. In words: Antimicrobial activity against Pseudomonas aeruginosa KCTC 1637 after 18 hrs. Type of series: functional. To be noted: KCTC 1637, 18 h.
Another series deals with Bacillus subtilis. In words: Antimicrobial activity against Bacillus subtilis KCTC 3068 after 18 hrs. The format is functional. To be noted: KCTC 3068, 18 h.
Series [3] has as its system Staphylococcus aureus. In words: Antimicrobial activity against Staphylococcus aureus KCTC 1621 after 18 hrs. The format is functional. To be noted: KCTC 1621, 18 h.
Series [4] relates to Staphylococcus epidermidis. In words: Antimicrobial activity against Staphylococcus epidermidis KCTC 1617 after 18 hrs. The format is functional. The note with it: KCTC 1617, 18 h.
Series [5] has as its system Staphylococcus aureus. In words: Antimicrobial activity against methicillin-resistant Staphylococcus aureus CCARM 3089 after 18 hrs. Type of series: functional. To be noted: CCARM 3089, 18 h.
In series [6] the test system is Staphylococcus aureus. Put plainly: Antimicrobial activity against methicillin-resistant Staphylococcus aureus CCARM 3090 after 18 hrs. The note with it: CCARM 3090, 18 h. Type of series: functional.
Series [7] concerns Staphylococcus aureus. Put plainly: Antimicrobial activity against methicillin-resistant Staphylococcus aureus CCARM 3095 after 18 hrs. Type of series: functional. To be noted: CCARM 3095, 18 h.
The subject of the next series is Enterococcus faecium. Put plainly: Antimicrobial activity against vancomycin-resistant Enterococcus faecium ATCC 51559 after 18 hrs. Type of series: functional. To be noted: ATCC 51559, 18 h.
Series [8] deals with Pseudomonas aeruginosa. Put plainly: Antimicrobial activity against multidrug-resistant Pseudomonas aeruginosa CCARM 2095 after 18 hrs. Type of series: functional. The note with it: CCARM 2095, 18 h.
Series [9] relates to Staphylococcus aureus. Put plainly: Induction of cytoplasmic membrane depolarization in Staphylococcus aureus KCTC 1621 at 2 to 8 times MIC concentration by DiSC3(5)-dye based fluorescence spectrophotometry. Type of series: functional, organism-based.
Series [10] deals with Staphylococcus aureus. Put plainly: Induction of membrane permeabilization in Staphylococcus aureus KCTC 1621 at 2 to 8 times MIC concentration up to 300 secs by SYTOX green uptake assay. The format is functional, organism-based.
Series [11] has as its system Staphylococcus aureus. Put plainly: Bactericidal activity against Staphylococcus aureus KCTC 1621 at MIC concentration after 30 mins by time kill assay. The format is functional, organism-based.
For series [12], the system named is Escherichia coli. Put plainly: Bactericidal activity against Escherichia coli KCTC 1682 at MIC concentration after 120 to 180 mins by time kill assay. The format is functional, organism-based.
For series [13], the system named is Escherichia coli. In words: Induction of membrane permeabilization in Escherichia coli KCTC 1682 assessed as PI-positive cells at 25 uM after 1 to 2 hrs by propidium iodide-staining based flow cytometry (reference value: 2.36%). Type of series: functional. On the technique in general: In flow cytometry, cells or beads pass a laser one at a time.
The next series concerns DNA. Put plainly: Binding affinity to Escherichia coli pBR322 DNA assessed as inhibition of DNA migration at 32 uM after 1 hr by agarose gel electrophoresis and UV spectroscopy. Type of series: nucleic-acid assay.
A short description of series [14]: Hemolytic activity in sheep RBC assessed as free hemoglobin level up to 256 uM by ELISA relative to control. Type of series: ADME, cell-based, Ovis aries, Erythrocyte. To be noted: sheep red blood cells (erythrocytes), read-out: Activity.
In a further series the test system is RAW264.7. In words: Cytotoxicity against mouse RAW264.7 cells at 512 uM after 48 hrs by MTT assay. Type of series: cell-based. To be noted: raw264.7, 48 h. For orientation: Tetrazolium assays rely on reduction of a dye to a coloured formazan, in cell work by metabolically active cells.

In brackets after ≈: the same amount, converted by molar mass. Activity calls are given as the source filed them. No cut-off for these calls is given here. Positions of bridges follow the written chain, without caps; N, C: chain ends. Residues, ends and D or L forms follow the SMILES beside them.

With `CC[C@H](C)[C@H](NC(=O)[C@@H](NC(=O)[C@H](Cc1cnc[nH]1)NC(=O)[C@H](CCCNC(=N)N)NC(=O)[C@H](C)NC(=O)[C@H](CCCNC(=N)N)NC(=O)[C@H](CC(C)C)NC(=O)[C@H](CO)NC(=O)[C@H](C)NC(=O)[C@H](CC(C)C)NC(=O)[C@@H](N)CC(N)=O)[C@@H](C)O)C(=O)N1CCC[C@H]1C(=O)N[C@@H](CCC(N)=O)C(=O)N[C@@H](CCCNC(=N)N)C(=O)N[C@@H](CCCCN)C(=O)N[C@@H](Cc1ccccc1)C(=O)NCC(=O)N[C@@H](CCCNC(=N)N)C(=O)N[C@@H](CCCNC(=N)N)C(N)=O` (H-NLASLRARHTIPQRKFGRR-NH2), the MIC (usually the lowest concentration found to suppress growth) in the series on Escherichia coli [1] stood at 6.3 µM (≈ 14.3 µg/mL); in the series with Salmonella typhimurium it was 6.3 µM (≈ 14.3 µg/mL); against Pseudomonas aeruginosa [2], 6.3 µM (≈ 14.3 µg/mL); against Bacillus subtilis, 6.3 µM (≈ 14.3 µg/mL); in the series on Staphylococcus aureus [3], 12.5 µM (≈ 28.5 µg/mL); in series [4], 6.3 µM (≈ 14.3 µg/mL). Further, the MIC against Staphylococcus aureus [5] was found to be 12.5 µM (≈ 28.5 µg/mL); with Staphylococcus aureus [6], 25 µM (≈ 56.9 µg/mL); against Staphylococcus aureus [7], 25 µM (≈ 56.9 µg/mL); against Enterococcus faecium, 50 µM (≈ 114 µg/mL); in the series on Pseudomonas aeruginosa [8] it was 25 µM (≈ 56.9 µg/mL). In addition, the outcome in the series on Staphylococcus aureus [9] and with Staphylococcus aureus [10] was inactive.

In the case of `CC[C@H](C)[C@H](NC(=O)[C@@H](NC(=O)[C@H](Cc1cnc[nH]1)NC(=O)[C@H](CCCNC(=N)N)NC(=O)[C@H](C)NC(=O)[C@H](CCCNC(=N)N)NC(=O)[C@H](CC(C)C)NC(=O)[C@H](CO)NC(=O)[C@H](C)NC(=O)[C@H](CS)NC(=O)[C@H](CC(C)C)NC(=O)[C@@H](N)CC(N)=O)[C@@H](C)O)C(=O)N1CCC[C@H]1C(=O)N[C@@H](CCC(N)=O)C(=O)N[C@@H](CS)C(=O)N[C@@H](CCCNC(=N)N)C(=O)N[C@@H](CCCCN)C(=O)N[C@@H](Cc1ccccc1)C(=O)NCC(=O)N[C@@H](CCCNC(=N)N)C(=O)N[C@@H](CCCNC(=N)N)C(N)=O` (H-NLCASLRARHTIPQCRKFGRR-NH2), the minimal inhibitory concentration (MIC) (with Escherichia coli [1]; in the series on Salmonella typhimurium; against Pseudomonas aeruginosa [2]; in the series with Bacillus subtilis; against Staphylococcus aureus [3]; in series [4]) was 12.5 µM (≈ 31 µg/mL) in each case. Also, the minimal inhibitory concentration (MIC) with Staphylococcus aureus [5] stood at 12.5 µM (≈ 31 µg/mL); in the series on Staphylococcus aureus [6] it was 25 µM (≈ 62.1 µg/mL); with Staphylococcus aureus [7], 12.5 µM (≈ 31 µg/mL); with Enterococcus faecium, 25 µM (≈ 62.1 µg/mL); against Pseudomonas aeruginosa [8], 50 µM (≈ 124 µg/mL). Moreover, the result with Staphylococcus aureus [9] and with Staphylococcus aureus [10] was inactive.

With `CC[C@H](C)[C@@H]1NC(=O)[C@H]([C@@H](C)O)NC(=O)[C@H](Cc2cnc[nH]2)NC(=O)[C@H](CCCNC(=N)N)NC(=O)[C@H](C)NC(=O)[C@H](CCCNC(=N)N)NC(=O)[C@H](CC(C)C)NC(=O)[C@H](CO)NC(=O)[C@H](C)NC(=O)[C@@H](NC(=O)[C@H](CC(C)C)NC(=O)[C@@H](N)CC(N)=O)CSSC[C@@H](C(=O)N[C@@H](CCCNC(=N)N)C(=O)N[C@@H](CCCCN)C(=O)N[C@@H](Cc2ccccc2)C(=O)NCC(=O)N[C@@H](CCCNC(=N)N)C(=O)N[C@@H](CCCNC(=N)N)C(N)=O)NC(=O)[C@H](CCC(N)=O)NC(=O)[C@@H]2CCCN2C1=O` (H-NLCASLRARHTIPQCRKFGRR-NH2; disulfide 3-15), the minimum inhibitory concentration (MIC) (in the series with Escherichia coli [1]; with Salmonella typhimurium; in the series on Pseudomonas aeruginosa [2]; with Bacillus subtilis; against Staphylococcus aureus [3]; in [4]) was 12.5 µM (≈ 31 µg/mL) each time. For the same compound, the minimum inhibitory concentration (MIC) was 12.5 µM (≈ 31 µg/mL) against Staphylococcus aureus [5]; 25 µM (≈ 62 µg/mL) against Staphylococcus aureus [6]; 12.5 µM (≈ 31 µg/mL) with Staphylococcus aureus [7]; 25 µM (≈ 62 µg/mL) in the series on Enterococcus faecium; 50 µM (≈ 124 µg/mL) against Pseudomonas aeruginosa [8]. Moreover, the outcome in the series on Staphylococcus aureus [11], in the series on Escherichia coli [12] and in the series on DNA was Active. Also, the outcome in the series with Staphylococcus aureus [9] and with Staphylococcus aureus [10] was inactive. Moreover, the figures for the Activity with Escherichia coli [13] and with RAW264.7 were 6.39% and “Non-Toxic”, respectively. The hemolysis in series [14] is less than 1%.

For the origin of these results see ChEMBL document CHEMBL4257591 (J Med Chem, 2018).
